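A five-concentration, 48-hour dose response in 96-well plates underlies each endpoint, interpolated linearly between surrounding concentrations. GI50: concentration for 50% inhibition of growth.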 The source made the active and inactive calls. Rule as the data show it: active = GI50 up to about 1.1 µM and inactive = higher.
Assays:
Test in all cases: NCI-60 cell line screen, 48 h
[1] = tested on: HL-60
[2] = tested on: SF-295
[3] = tested on: SNB-75
[4] = tested on: T47D
[5] = tested on: MCF7
[6] = tested on: NCI-H460
[7] = tested on: SF-539
[8] = tested on: KM12
[9] = tested on: OVCAR-5
[10] = tested on: PC-3
[11] = tested on: UACC-62
[12] = tested on: SK-MEL-2
[13] = tested on: SK-MEL-5
[14] = tested on: 786-0
[15] = tested on: DU-145
[16] = tested on: COLO 205
[17] = tested on: SNB-19
[18] = tested on: UACC-257
[19] = tested on: U-251
[20] = tested on: MOLT-4
[21] = tested on: A549
[22] = tested on: UO-31
[23] = tested on: HCT-15
[24] = tested on: NCI/ADR-RES
[25] = tested on: IGROV-1
[26] = tested on: Malme-3M
[27] = tested on: SK-MEL-28
[28] = tested on: SF-268
[29] = tested on: OVCAR-4
[30] = tested on: CAKI-1
[31] = tested on: CCRF-CEM
[32] = tested on: NCI-H522
[33] = tested on: HCC 2998
[34] = tested on: HCT-116
[35] = tested on: M14
[36] = tested on: OVCAR-3
[37] = tested on: SN12C
[38] = tested on: TK-10
[39] = tested on: LOX IMVI
[40] = tested on: MDA-MB-231
[41] = tested on: BT-549
[42] = tested on: Hs-578T
[43] = tested on: OVCAR-8
[44] = tested on: HOP-92
[45] = tested on: MDA-MB-435
[46] = tested on: HOP-62
[47] = tested on: SR
[48] = tested on: SK-OV-3
[49] = tested on: NCI-H23
[50] = tested on: NCI-H226
[51] = tested on: MDA-N
[52] = tested on: ACHN
[53] = tested on: RPMI-8226
[54] = tested on: HT-29
[55] = tested on: SW-620
[56] = tested on: K562
[57] = tested on: EKVX
[58] = tested on: A498

With `COC(=O)CCc1ccc2c(c1)CCC2` the GI50 [1] was > 100 µM (inactive), the GI50 [2] was > 100 µM (inactive) and the GI50 [3] was > 100 µM (inactive). The GI50 [4] was > 100 µM (inactive), the GI50 [5] was > 100 µM (inactive) and the GI50 [6] was > 100 µM (inactive). The GI50 [7] was > 100 µM (inactive), the GI50 [8] was > 100 µM (inactive) and the GI50 [9] was > 100 µM (inactive). For the same compound, the GI50 [10] was > 100 µM (inactive), the GI50 [11] was > 100 µM (inactive) and the GI50 [12] was > 100 µM (inactive). The GI50 [13] was > 100 µM (inactive), the GI50 [14] was > 100 µM (inactive) and the GI50 [15] was > 100 µM (inactive). The GI50 [16] was > 100 µM (inactive), the GI50 [17] was > 100 µM (inactive) and the GI50 [18] was > 100 µM (inactive). The GI50 [19] was > 100 µM (inactive), the GI50 [20] was > 100 µM (inactive) and the GI50 [21] was > 100 µM (inactive). The GI50 [22] was > 100 µM (inactive), the GI50 [23] was > 100 µM and the GI50 [24] was > 100 µM (inactive). For the same compound, the GI50 [25] was > 100 µM (inactive), the GI50 [26] was > 100 µM (inactive) and the GI50 [27] was > 100 µM (inactive). The GI50 [28] was > 100 µM (inactive), the GI50 [29] was > 100 µM (inactive) and the GI50 [30] was > 100 µM (inactive). For the same compound, the GI50 [31] was > 100 µM (inactive), the GI50 [32] was > 100 µM (inactive) and the GI50 [33] was > 100 µM (inactive). For the same compound, the GI50 [34] was > 100 µM (inactive), the GI50 [35] was > 100 µM (inactive) and the GI50 [36] was > 100 µM (inactive). For the same compound, the GI50 [37] was > 100 µM (inactive), the GI50 [38] was > 100 µM (inactive) and the GI50 [39] was > 100 µM (inactive). For the same compound, the GI50 [40] was > 100 µM (inactive), the GI50 [41] was > 100 µM (inactive) and the GI50 [42] was > 100 µM (inactive). For the same compound, the GI50 [43] was > 100 µM (inactive), the GI50 [44] was 15.1 µM (inactive) and the GI50 [45] was > 100 µM (inactive). The GI50 [46] was > 100 µM (inactive), the GI50 [47] was > 100 µM (inactive) and the GI50 [48] was > 100 µM (inactive). The GI50 [49] was > 100 µM (inactive), the GI50 [50] was > 100 µM (inactive) and the GI50 [51] was > 100 µM (inactive). The GI50 [52] was > 100 µM (inactive), the GI50 [53] was > 100 µM (inactive) and the GI50 [54] was > 100 µM (inactive). For the same compound, the GI50 [55] was > 100 µM (inactive).
With `Nc1ccc(C(=O)c2cn(CCN3CCOCC3)c3ccccc23)c2ccccc12` the GI50 [1] was 15.4 µM (inactive), the GI50 [2] was 33.3 µM (inactive) and the GI50 [4] was 24.4 µM (inactive). The GI50 [5] was 34 µM (inactive), the GI50 [6] was 34.3 µM (inactive) and the GI50 [56] was 17.3 µM (inactive). For the same compound, the GI50 [7] was 70.8 µM (inactive), the GI50 [8] was 31.1 µM (inactive) and the GI50 [9] was 39.3 µM (inactive). The GI50 [10] was 36.1 µM (inactive), the GI50 [11] was 34 µM (inactive) and the GI50 [12] was 36.6 µM (inactive). For the same compound, the GI50 [57] was 21.2 µM (inactive), the GI50 [13] was 20.7 µM (inactive) and the GI50 [14] was 54.6 µM (inactive). For the same compound, the GI50 [15] was 63 µM (inactive), the GI50 [16] was 24.8 µM (inactive) and the GI50 [17] was 75 µM (inactive). The GI50 [18] was 45.6 µM (inactive), the GI50 [19] was 55.6 µM (inactive) and the GI50 [20] was 19.4 µM (inactive). For the same compound, the GI50 [21] was 40.9 µM (inactive), the GI50 [22] was 44.4 µM (inactive) and the GI50 [23] was 18.2 µM. For the same compound, the GI50 [24] was 22.7 µM (inactive), the GI50 [25] was 16.1 µM (inactive) and the GI50 [26] was 34.1 µM (inactive). For the same compound, the GI50 [27] was 38.4 µM (inactive), the GI50 [28] was 32.6 µM (inactive) and the GI50 [29] was 33 µM (inactive). The GI50 [30] was 62.8 µM (inactive), the GI50 [31] was 3.94 µM (inactive) and the GI50 [32] was 21 µM (inactive). For the same compound, the GI50 [33] was 47.2 µM (inactive), the GI50 [34] was 31.7 µM (inactive) and the GI50 [35] was 44.6 µM (inactive). For the same compound, the GI50 [58] was 65.6 µM (inactive), the GI50 [36] was 32.6 µM (inactive) and the GI50 [39] was 23.4 µM (inactive). The GI50 [41] was 19.1 µM (inactive), the GI50 [42] was 28.2 µM (inactive) and the GI50 [43] was 20.2 µM (inactive). For the same compound, the GI50 [45] was 27.7 µM (inactive), the GI50 [46] was 83.4 µM (inactive) and the GI50 [47] was 22.9 µM (inactive). For the same compound, the GI50 [48] was > 100 µM (inactive), the GI50 [49] was 23.8 µM (inactive) and the GI50 [51] was 32.5 µM (inactive). For the same compound, the GI50 [52] was 48.9 µM (inactive), the GI50 [53] was 26.5 µM (inactive) and the GI50 [54] was 22.5 µM (inactive). The GI50 [55] was 30.8 µM (inactive).

Source: ChEMBL document CHEMBL1201862, “PubChem BioAssay data set” (2004)
